Assay results as given in US20170035787A1, “Fixed Dose Combination for Pain Relief Without Edema” (Autotelic LLC, priority 2014, published 2017).
Where “and” joins values, the source holds several entries; their conditions need not be identical. Identical values can stand only once. Entries after “also recorded” stand apart in the source; their conditions may differ.

Columns and labels:
[1] = in vivo
[2] = CELEBREX Package Insert table; cited from earlier work
[3] = Combined plots and meta analysis of published celecoxib pharmacokinetic data; assay type: in vivo, human
Source text: In other words, the most efficacious celecoxib dosage is not well defined among the elderly. The problem may be more widespread than expected as elderly here is defined as patients greater than >40 or >50, not the usually definition of elderly (age greater >65).

[4] = Applicant's meta analysis of reported edema rates in osteoarthritic populations by celecoxib dose
[5] = cited from earlier work

For Cc1ccc(-c2cc(C(F)(F)F)nn2-c2ccc(S(N)(=O)=O)cc2)cc1 [celecoxib], the “% Edema” value ([1]; human) was 20%, the “effect of anti-hypertensive class on incidence of edema in patients taking CELEBREX” value [1] was “steady increase in incidence of edema” and the “incidence of edema in patients taking CELEBREX with or without diuretic” value [1] was “steady increase in incidence of edema”. The “incidence of edema with vs without CELEBREX by arthritis group” value [1] was “increased when patients was taken CELEBREX® for all groups except for RA and no Arthritis free patients”, the “patients treated who develop edema” value [2] was 2.1% and the “variability of pharmacokinetics; 100 mg vs 200 mg dose PK results” value ([3]; FIG. 2, listed as CELEBREX®) was “unexpectedly high; also recorded: substantial overlap”. The “drug exposure as defined by AUC, elderly vs younger patients” value ([3]; age-based subgroups, FIG. 3) was “highly significant differences”, the “upper limit and average edema event rate” value ([4]; 400 mg/day vs 100 or 200 mg/day) was “more than twice as high” and the edema event rates ([4]; 100 vs 200 mg/day dose) was “remarkably similar edema event rates”. The incidence of edema ([5]; two trials with much higher incidence) was 23% and 38% and the “incidence of edema at any site” value ([5]; usual incidence in clinical trials of celecoxib) was “about 3%”.

In the case of O=C(O)Cc1ccccc1Nc1c(Cl)cccc1Cl [diclofenac], the “patients treated who develop edema” value [2] is listed as 1.0%.

In the case of CC(C)Cc1ccc(C(C)C(=O)O)cc1 (centres unmarked) [ibuprofen], the “patients treated who develop edema” value [2] is listed as 3.5%.

In the case of COc1ccc2cc([C@H](C)C(=O)O)ccc2c1 [naproxen], the “patients treated who develop edema” value [2] is listed as 2.1%.
